Consider 27 molecules from patent publication US10918642B2, “N-(substituted-phenyl)-sulfonamide derivatives as kinase inhibitors” (Nerviano Medical Sciences S.R.L., priority 2016, dated 2021).

This assay concerns the target PERK recombinant enzyme (cytoplasmic domain corresponding to residues 540-1115) (Homo sapiens (Human), UniProt Q9NZJ5). The experiment in a line: PERK enzyme assay, Method 1: ADP-Glo Kinase Assay (quantification of ADP formed). In kind it is biochemical. The note with it: 52 microM ATP, 8 nM PERK, 300 microM eIF2alpha peptide substrate, 60 minutes at room temperature. As for the experimental part:
The biochemical activity of compounds was determined by incubation with PERK recombinant enzyme (cytoplasmic domain corresponding to residues 540-1115) and elF2alpha peptide substrate (Aminoacid sequence: LLSELSRRRIRSINK—SEQ ID Nr: 1; purchased from American Peptide Company, product #341923). This was followed by:
Method 1: Quantification of the ADP Tormed from the Kinase Reaction by ADP-Glo™ Kinase Assay (Promega Cat. 9102). Utra Pure ATP was Included into ADP-Glo™ Kinase Assay kit.
Compounds were 3-fold serially diluted in order to obtain from 3.333 to 0.000169 microM final concentration, then incubated for 60 minutes at room temperature in the presence of ATP, substrate and enzyme in a final volume of 15 microL of kinase buffer in 384-well plates (Perkin Elmer cat. #6007290).
The final concentration of the different reagents is 52 microM ATP, 8 nM PERK, 300 microM substrate, 50 mM Hepes pH 7.5, 3 mM MgCl2, 1 mM DTT, 3 microM Na3VO4, 0.2 mg/ml BSA, 1% DMSO.
After 60 minutes, an equal volume (15 microL) of ADP-Glo™ Reagent was added to each well to terminate the kinase reaction and deplete the remaining ATP. After 40 minutes, 30 microL of Kinase Detection Reagent is added, which simultaneously converts ADP to ATP and allows the newly synthesized ATP to be measured using a coupled luciferase/luciferin reaction. After further 40 minutes luminescence was read by ViewLux Instrument (Perkin Elmer). The data are analyzed by GraphPad Prism software which provides sigmoidal fittings of the curves for IC50 determination using a 4 parameter logistic equation: y=bottom+(top−bottom)/(1+10^((log IC50−x)*slope))
where x is the logarithm of the inhibitor concentration, y is the response; y starts at bottom and goes to top with a sigmoid shape.

Sequence of PERK recombinant enzyme (cytoplasmic domain corresponding to residues 540-1115) (Q9NZJ5 540-1115): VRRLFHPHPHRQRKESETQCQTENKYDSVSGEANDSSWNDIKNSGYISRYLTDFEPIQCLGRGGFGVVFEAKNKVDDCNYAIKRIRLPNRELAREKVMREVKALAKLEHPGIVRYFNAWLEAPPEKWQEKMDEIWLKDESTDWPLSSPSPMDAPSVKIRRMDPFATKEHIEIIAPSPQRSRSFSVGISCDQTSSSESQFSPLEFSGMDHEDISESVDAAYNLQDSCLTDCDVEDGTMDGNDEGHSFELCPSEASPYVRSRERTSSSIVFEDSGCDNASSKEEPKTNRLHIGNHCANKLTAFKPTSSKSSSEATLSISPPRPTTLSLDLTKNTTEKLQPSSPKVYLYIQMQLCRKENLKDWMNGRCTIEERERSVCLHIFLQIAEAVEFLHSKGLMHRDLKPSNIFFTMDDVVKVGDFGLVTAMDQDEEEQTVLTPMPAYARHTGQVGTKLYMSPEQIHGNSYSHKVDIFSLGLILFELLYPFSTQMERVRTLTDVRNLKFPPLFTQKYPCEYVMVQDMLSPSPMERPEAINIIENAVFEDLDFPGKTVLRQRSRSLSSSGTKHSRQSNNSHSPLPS

As for `Cn1cc(-c2cccc(NS(=O)(=O)c3cc(F)c(Br)cc3F)c2F)c2c(N)ncnc21` [cmpd 46, N-[3-(4-Amino-7-methyl-7H-pyrrolo[2,3-d]pyrimidin-5-yl)-2-fluoro-phenyl]-4-bromo-2,5-difluoro-benzenesulfonamide], the pIC50 result is given as “AA (7.8 ≤ pIC50)”.

In the case of `COc1ccc(S(=O)(=O)Nc2cccc(-c3cn(C4CCN(C)CC4)c4ncnc(N)c34)c2F)cc1C` [cmpd 38, N-{3-[4-Amino-7-(1-methyl-piperidin-4-yl)-7H-pyrrolo[2,3-d]pyrimidin-5-yl]-2-fluoro-phenyl}-4-methoxy-3-methyl-benzenesulfonamide], the pIC50 result is “AA (7.8 ≤ pIC50)”. For the molecule `COc1ccc(S(=O)(=O)Nc2cccc(-c3cn(C4CCN(C5CC5)CC4)c4ncnc(N)c34)c2F)cc1Cl` [cmpd 5, N-{3-[4-Amino-7-(1-cyclopropyl-piperidin-4-yl)-7H-pyrrolo[2,3-d]pyrimidin-5-yl]-2-fluoro-phenyl}-3-chloro-4-methoxy-benzenesulfonamide], the IC50 is 15.8 to 50.1 nM. Same read-out and setting: under `COc1ccc(S(=O)(=O)Nc2cccc(-c3cn(C4CCN(C5CC5)CC4)c4ncnc(N)c34)c2F)cc1C` [cmpd 39, N-{3-[4-Amino-7-(1-cyclopropyl-piperidin-4-yl)-7H-pyrrolo[2,3-d]pyrimidin-5-yl]-2-fluoro-phenyl}-4-methoxy-3-methyl-benzenesulfonamide] stands 15.8 to 50.1 nM. Consider `COc1ccc(S(=O)(=O)Nc2cccc(-c3cn(C(C)C)c4ncnc(N)c34)c2F)cc1Cl` [cmpd 2, N-[3-(4-Amino-7-isopropyl-7H-pyrrolo[2,3-d]pyrimidin-5-yl)-2-fluoro-phenyl]-3-chloro-4-methoxy-benzenesulfonamide], for which the pIC50 result is recorded as “AA (7.8 ≤ pIC50)”. On the same count and under the same terms, under `COc1cc(F)c(S(=O)(=O)Nc2cccc(-c3cn(C)c4ncnc(N)c34)c2F)cc1C` [cmpd 44, N-[3-(4-Amino-7-methyl-7H-pyrrolo[2,3-d]pyrimidin-5-yl)-2-fluoro-phenyl]-2-fluoro-4-methoxy-5-methyl-benzenesulfonamide] stands “AA (7.8 ≤ pIC50)”. Turning to `CCn1cc(-c2cccc(NS(=O)(=O)c3cc(Cl)c(OC)cc3F)c2F)c2c(N)ncnc21` [cmpd 75, N-[3-(4-Amino-7-ethyl-7H-pyrrolo[2,3-d]pyrimidin-5-yl)-2-fluoro-phenyl]-5-chloro-2-fluoro-4-methoxy-benzenesulfonamide], the IC50 was 15.8 to 50.1 nM. Still for that read-out and setting: under `Cn1cc(-c2cccc(NS(=O)(=O)c3cc(F)c(F)c(F)c3)c2F)c2c(N)ncnc21` [cmpd 32, N-[3-(4-Amino-7-methyl-7H-pyrrolo[2,3-d]pyrimidin-5-yl)-2-fluoro-phenyl]-3,4,5-trifluoro-benzenesulfonamide] stands 15.8 to 50.1 nM. Regarding `COc1ccc(S(=O)(=O)Nc2cccc(-c3cn(C)c4ncnc(N)c34)c2F)cc1Cl` [cmpd 1, N-[3-(4-Amino-7-methyl-7H-pyrrolo[2,3-d]pyrimidin-5-yl)-2-fluoro-phenyl]-3-chloro-4-methoxy-benzenesulfonamide], the pIC50 result is recorded as “A (7.3 ≤ pIC50 < 7.8)”. Regarding `COc1ccc(S(=O)(=O)Nc2cccc(-c3cn(C)c4ncnc(N)c34)c2F)cc1OC` [cmpd 17, N-[3-(4-Amino-7-methyl-7H-pyrrolo[2,3-d]pyrimidin-5-yl)-2-fluoro-phenyl]-3,4-dimethm-benzenesulfonamide], the IC50 was 50.1 to 158 nM. Still for that read-out and setting: under `Cn1cc(-c2cccc(NS(=O)(=O)c3ccc(Br)cc3F)c2F)c2c(N)ncnc21` [cmpd 22, N-[3-(4-Amino-7-methyl-7H-pyrrolo[2,3-d]pyrimidin-5-yl)-2-fluoro-phenyl]-4-bromo-2-fluoro-benzenesulfonamide] stands 15.8 to 50.1 nM; under `COc1ccc(S(=O)(=O)Nc2cccc(-c3cn(C)c4ncnc(N)c34)c2F)cc1C#N` [cmpd 86, N-[3-(4-Amino-7-methyl-7H-pyrrolo[2,3-d]pyrimidin-5-yl)-2-fluoro-phenyl]-3-cyano-4-methoxy-benzenesulfonamide], 15.8 to 50.1 nM. For the molecule `COc1cc(F)c(S(=O)(=O)Nc2cccc(-c3nn(C)c4ncnc(N)c34)c2F)cc1Cl` [cmpd 9, N-[3-(4-Amino-1-methyl-1H-pyrazolo[3,4-d]pyrimidin-3-yl)-2-fluoro-phenyl]-5-chloro-2-fluoro-4-methoxy-benzenesulfonamide], the pIC50 result was “AA (7.8 ≤ pIC50)”.

`Cn1cc(-c2cccc(NS(=O)(=O)c3ccc4ccccc4c3)c2F)c2c(N)ncnc21` [cmpd 20, Naphthalene-2-sulfonic acid [3-(4-amino-7-methyl-7H-pyrrolo[2,3-d]pyrimidin-5-yl)-2-fluoro-phenyl]-amide]: the pIC50 entry is “C (pIC50 < 6.8)”. Same read-out and setting: under `Cn1cc(-c2cccc(NS(=O)(=O)c3ccc(O)c(Cl)c3)c2F)c2c(N)ncnc21` [cmpd 67, N-[3-(4-Amino-7-methyl-7H-pyrrolo[2,3-d]pyrimidin-5-yl)-2-fluoro-phenyl]-3-chloro-4-hydroxy-benzenesulfonamide] stands “C (pIC50 < 6.8)”. As to `Cn1cc(-c2cccc(NS(=O)(=O)c3c(F)cccc3F)c2F)c2c(N)ncnc21` [cmpd 23, N-[3-(4-Amino-7-methyl-7H-pyrrolo[2,3-d]pyrimidin-5-yl)-2-fluoro-phenyl]-2,6-difluoro-benzenesulfonamide], the half-inhibitory concentration (IC50) was 50.1 to 158 nM.

For `Cn1cc(-c2cccc(NS(=O)(=O)c3ccc(Cl)cc3F)c2F)c2c(N)ncnc21` [cmpd 85, N-[3-(4-Amino-7-methyl-7H-pyrrolo[2,3-d]pyrimidin-5-yl)-2-fluoro-phenyl]-4-chloro-2-fluoro-benzenesulfonamide], the IC50 was 15.8 to 50.1 nM. On the same count and under the same terms, under `CCN1CCC(n2cc(-c3cccc(NS(=O)(=O)c4ccc(OC)c(C)c4)c3F)c3c(N)ncnc32)CC1` [cmpd 41, N-{3-[4-Amino-7-(1-ethyl-piperidin-4-yl)-7H-pyrrolo[2,3-d]pyrimidin-5-yl]-2-fluoro-phenyl}-4-methoxy-3-methyl-benzenesulfonamide] stands 15.8 to 50.1 nM.

Consider `COc1cc(F)c(S(=O)(=O)Nc2cccc(-c3cn(C4CCN(C)CC4)c4ncnc(N)c34)c2F)cc1Cl` [cmpd 3, N-{3-[4-Amino-7-(1-methyl-piperidin-4-yl)-7H-pyrrolo[2,3-d]pyrimidin-5-yl]-2-fluoro-phenyl}-5-chloro-2-fluoro-4-methoxy-benzenesulfonamide], for which the pIC50 result is given as “AA (7.8 ≤ pIC50)”. Same read-out and setting: under `COc1cc(F)c(S(=O)(=O)Nc2cccc(-c3cn(C)c4ncnc(N)c34)c2F)cc1Cl` [cmpd 24, N-[3-(4-Amino-7-methyl-7H-pyrrolo[2,3-d]pyrimidin-5-yl)-2-fluoro-phenyl]-5-chloro-2-fluoro-4-methoxy-benzenesulfonamide] stands “AA (7.8 ≤ pIC50)”; under `COc1ccc(S(=O)(=O)Nc2cccc(-c3cn(C)c4ncnc(N)c34)c2F)cc1Br` [cmpd 87, N-[3-(4-Amino-7-methyl-7H-pyrrolo[2,3-d]pyrimidin-5-yl)-2-fluoro-phenyl]-3-bromo-4-methoxy-benzenesulfonamide], “AA (7.8 ≤ pIC50)”.

Take `Cn1cc(-c2cccc(NS(=O)(=O)c3ccc([N+](=O)[O-])cc3)c2F)c2c(N)ncnc21` [cmpd 19, N-[3-(4-Amino-7-methyl-7H-pyrrolo[2,3-d]pyrimidin-5-yl)-2-fluoro-phenyl]-4-nitro-benzenesulfonamide]: the IC50 was 15.8 to 50.1 nM. Still for that read-out and setting: under `COc1c(C)cc(S(=O)(=O)Nc2cccc(-c3cn(C)c4ncnc(N)c34)c2F)cc1C` [cmpd 29, N-[3-(4-Amino-7-methyl-7H-pyrrolo[2,3-d]pyrimidin-5-yl)-2-fluoro-phenyl]-4-methoxy-3,5-dimethyl-benzenesulfonamide] stands 15.8 to 50.1 nM; under `Cn1cc(-c2cccc(NS(=O)(=O)c3cc(Cl)cc(Cl)c3)c2F)c2c(N)ncnc21` [cmpd 26, N-[2-(4-Amino-7-methyl-7H-pyrrolo[2,3-d]pyrimidin-5-yl)-2-fluoro-phenyl]-3,5-dichloro-benzenesulfonamide], 15.8 to 50.1 nM. For `COc1ccc(S(=O)(=O)Nc2cccc(-c3nn(C)c4ncnc(N)c34)c2F)cc1Cl` [cmpd 35, N-[3-(4-Amino-1-methyl-1H-pyrazolo[3,4-d]pyrimidin-3-yl)-2-fluoro-phenyl]-3-chloro-4-methoxy-benzenesulfonamide], the pIC50 entry is listed as “AA (7.8 ≤ pIC50)”. As to `COc1ccc(S(=O)(=O)Nc2cccc(-c3cn(C4CCOCC4)c4ncnc(N)c34)c2F)cc1C` [cmpd 36, N-{3-[4-Amino-7-(tetrahydro-pyran-4-yl)-7H-pyrrolo[2,3-d]pyrimidin-5-yl]-2-fluoro-phenyl}-4-methoxy-3-methyl-benzenesulfonamide], the 50% inhibitory concentration (IC50) is 15.8 to 50.1 nM.

As to `Cn1cc(-c2cccc(NS(=O)(=O)c3ccc(C(F)(F)F)cc3)c2F)c2c(N)ncnc21` [cmpd 15, N-[3-(4-Amino-7-methyl-7H-pyrrolo[2,3-d]pyrimidin-5-yl)-2-fluoro-phenyl]-4-trifluoromethyl-benzenesulfonamide], the 50% inhibitory concentration (IC50) is 50.1 to 158 nM.
